Results published in article PMC12195707, “Evaluation of Antitumoral Activity in a 3D Cell Model of a Src Inhibitor Prodrug for Glioblastoma Treatment” (Pharmaceutics, 2025).

Legend:
[1] = PAMPA assay, gastrointestinal (GI) membrane; assay type: in vitro ADME; conditions: four hours
Description: (§1) After being first dissolved in DMSO, the compounds were diluted 1:1 v/v using phosphate buffer (PBS 10 mM, pH 7.4). […] The gastrointestinal (GI) and blood–brain barrier (BBB) phospholipidic bilayers were mimicked by covering each well of the filter plate with either a 10%w/v CHCl3/dodecane brain polar lipid solution or a 1%w/v L-α-phosphatidylcholine solution (PC) in dodecane. After placing a DMSO/PBS 1:1v/v combination solution in the acceptor plate, the sandwich was gently shaken and incubated at room temperature for four hours. Samples were collected from the upper and bottom plates at the end time point, and the LC-UV/MS method was used for analysis. As previously reported, the apparent permeability (Papp cm/s × 10^−6) was quantified.

[2] = PAMPA assay, blood-brain barrier (BBB) membrane
Description: as §1

[3] = tested on: orthotopic GBM model; parameters: method as in PMID 28650650; conditions: compared with SI306; cited from earlier work

Row | Structure (SMILES) | Papp at 4 h ([1]; pH 7.4, room temperature, read-out: Apparent permeability Papp) [×10⁻⁶ cm/s] | Membrane retention MR ([1]; room temperature) [%] | Apparent permeability Papp ([2]; BBB PAMPA, room temperature, four hours) [cm/s × 10^−6] | Membrane retention MR ([2]; PAMPA, 4 h, pH 7.4) [%] | Efficacy in orthotopic GBM model [3]
1 | CC(C)NCC(O)COc1cccc2ccccc12 (centres unmarked) [Propranolol, propranolol, reference compound] | 19.2 ± 0.37 | 8.89 ± 1.12 | 17.16 ± 0.31 | 10.73 ± 1.33 | 
2 | CN1CCN(CCOC(=O)N(c2cccc(Br)c2)c2nc(SCCN3CCOCC3)nc3c2cnn3CC(Cl)c2ccccc2)CC1 (centres unmarked) [SI306-PD1] |  |  |  |  | greater efficacy than SI306
